Test results published in ChEMBL document CHEMBL1629541, “Synthesis and structure-activity relationships of aza- and diazabiphenyl analogues of the antitubercular drug (6S)-2-nitro-6-{[4-(trifluoromethoxy)benzyl]oxy}-6,7-dihydro-5H-imidazo[2,1-b][1,3]oxazine (PA-824)” (J Med Chem, 2010).
Converted amounts (≈) assume the structure as drawn.

What was measured:
[1] = test system: Mycobacterium tuberculosis; assay: microbe, parasite or virus in culture; settings: H37Rv
physchem = settings: water, pH 7
Description: Solubility of the compound in water at pH 7.0 by HPLC

[2] = test system: Mycobacterium tuberculosis; assay: microbe, parasite or virus in culture; settings: H37Rv; remark: listed apart in the source
Description: Antitubercular activity against Mycobacterium tuberculosis H37Rv by LORA method

SMILES	MIC [1] [µM]	solubility (physchem) [µg/mL]	MIC [2] [µM]
N#Cc1ccc(-c2cc(CO[C@@H]3COc4nc([N+](=O)[O-])cn4C3)ccn2)cc1	0.38 (≈ 0.143 µg/mL)	8 (≈ 21.2 µM)	13 (≈ 4.91 µg/mL)
O=[N+]([O-])c1cn2c(n1)OC[C@@H](OCc1ccnc(-c3ccc(F)cc3)c1)C2	0.17 (≈ 0.063 µg/mL)	31 (≈ 83.7 µM)	1.2 (≈ 0.444 µg/mL)
O=[N+]([O-])c1cn2c(n1)OC[C@@H](OCc1ccnc(-c3ccc(OC(F)F)cc3)c1)C2	0.055 (≈ 0.023 µg/mL)	16 (≈ 38.2 µM)	2.7 (≈ 1.13 µg/mL)
COc1ccc(-c2cc(CO[C@@H]3COc4nc([N+](=O)[O-])cn4C3)ccn2)cc1F	0.34 (≈ 0.136 µg/mL)	7.2 (≈ 18 µM)	6.2 (≈ 2.48 µg/mL)
COc1ccc(-c2cc(CO[C@@H]3COc4nc([N+](=O)[O-])cn4C3)ccn2)cn1	1.3 (≈ 0.498 µg/mL)	93 (≈ 243 µM)	12 (≈ 4.6 µg/mL)
O=[N+]([O-])c1cn2c(n1)OC[C@@H](OCc1cncc(-c3ccc(C(F)(F)F)cc3)c1)C2	0.15 (≈ 0.0631 µg/mL)	2.8 (≈ 6.66 µM)	3.5 (≈ 1.47 µg/mL)
N#Cc1ccc(-c2cncc(CO[C@@H]3COc4nc([N+](=O)[O-])cn4C3)c2)cc1	0.69 (≈ 0.26 µg/mL)	29 (≈ 76.8 µM)	18 (≈ 6.79 µg/mL)
O=[N+]([O-])c1cn2c(n1)OC[C@@H](OCc1cncc(-c3ccc(OC(F)(F)F)cc3)c1)C2	0.17 (≈ 0.0742 µg/mL)	9.5 (≈ 21.8 µM)	2.4 (≈ 1.05 µg/mL)
O=[N+]([O-])c1cn2c(n1)OC[C@@H](OCc1cncc(-c3ccc(OC(F)F)cc3)c1)C2	0.53 (≈ 0.222 µg/mL)	9.2 (≈ 22 µM)	5.9 (≈ 2.47 µg/mL)
COc1ccc(-c2cncc(CO[C@@H]3COc4nc([N+](=O)[O-])cn4C3)c2)cc1F	0.91 (≈ 0.364 µg/mL)	24 (≈ 59.9 µM)	9 (≈ 3.6 µg/mL)
COc1ccc(-c2cncc(CO[C@@H]3COc4nc([N+](=O)[O-])cn4C3)c2)cn1	2.8 (≈ 1.07 µg/mL)	31 (≈ 80.9 µM)	22 (≈ 8.43 µg/mL)
O=[N+]([O-])c1cn2c(n1)OC[C@@H](OCc1cc(-c3ccc(C(F)(F)F)cc3)ccn1)C2	0.88 (≈ 0.37 µg/mL)	43 (≈ 102 µM)	24 (≈ 10.1 µg/mL)
N#Cc1ccc(-c2ccnc(CO[C@@H]3COc4nc([N+](=O)[O-])cn4C3)c2)cc1	2.1 (≈ 0.792 µg/mL)	19 (≈ 50.3 µM)	> 32
O=[N+]([O-])c1cn2c(n1)OC[C@@H](OCc1cc(-c3ccc(F)cc3)ccn1)C2	0.46 (≈ 0.17 µg/mL)	16 (≈ 43.2 µM)	28 (≈ 10.4 µg/mL)
O=[N+]([O-])c1cn2c(n1)OC[C@@H](OCc1cc(-c3ccc(OC(F)(F)F)cc3)ccn1)C2	0.76 (≈ 0.332 µg/mL)	–	18 (≈ 7.85 µg/mL)
O=[N+]([O-])c1cn2c(n1)OC[C@@H](OCc1cc(-c3ccc(OC(F)F)cc3)ccn1)C2	0.67 (≈ 0.28 µg/mL)	86 (≈ 206 µM)	26 (≈ 10.9 µg/mL)
COc1ccc(-c2ccnc(CO[C@@H]3COc4nc([N+](=O)[O-])cn4C3)c2)cc1F	2.3 (≈ 0.921 µg/mL)	25 (≈ 62.4 µM)	16 (≈ 6.41 µg/mL)
COc1ccc(-c2ccnc(CO[C@@H]3COc4nc([N+](=O)[O-])cn4C3)c2)cn1	3.8 (≈ 1.46 µg/mL)	96 (≈ 250 µM)	31 (≈ 11.9 µg/mL)
O=[N+]([O-])c1cn2c(n1)OC[C@@H](OCc1ccc(-c3ccc(C(F)(F)F)cc3)cn1)C2	0.04 (≈ 0.0168 µg/mL)	2.3 (≈ 5.47 µM)	3.4 (≈ 1.43 µg/mL)
N#Cc1ccc(-c2ccc(CO[C@@H]3COc4nc([N+](=O)[O-])cn4C3)nc2)cc1	0.18 (≈ 0.0679 µg/mL)	45 (≈ 119 µM)	7.5 (≈ 2.83 µg/mL)
O=[N+]([O-])c1cn2c(n1)OC[C@@H](OCc1ccc(-c3ccc(F)cc3)cn1)C2	0.13 (≈ 0.0481 µg/mL)	–	3.2 (≈ 1.19 µg/mL)
O=[N+]([O-])c1cn2c(n1)OC[C@@H](OCc1ccc(-c3ccc(OC(F)F)cc3)cn1)C2	0.02 (≈ 0.00837 µg/mL)	–	4 (≈ 1.67 µg/mL)

SMILES	MIC [1] [µM]	solubility (physchem) [µg/mL]	MIC [2] [µM]
COc1ccc(-c2ccc(CO[C@@H]3COc4nc([N+](=O)[O-])cn4C3)nc2)cc1F	0.17 (≈ 0.0681 µg/mL)	10 (≈ 25 µM)	3.4 (≈ 1.36 µg/mL)
O=[N+]([O-])c1cn2c(n1)OC[C@@H](OCc1ccc(-c3ccc(OC(F)(F)F)cc3Cl)cn1)C2	0.14 (≈ 0.0659 µg/mL)	–	2.6 (≈ 1.22 µg/mL)
O=[N+]([O-])c1cn2c(n1)OC[C@@H](OCc1ccc(-c3ccc(OC(F)(F)F)c(Cl)c3)cn1)C2	0.04 (≈ 0.0188 µg/mL)	0.85 (≈ 1.81 µM)	2.4 (≈ 1.13 µg/mL)
O=[N+]([O-])c1cn2c(n1)OC[C@@H](OCc1ccc(-c3ccc(OC(F)(F)F)cc3F)cn1)C2	0.06 (≈ 0.0273 µg/mL)	–	1.7 (≈ 0.772 µg/mL)
O=[N+]([O-])c1cn2c(n1)OC[C@@H](OCc1ccc(-c3ccc(OC(F)(F)F)cc3Cl)nc1)C2	0.03 (≈ 0.0141 µg/mL)	–	1.6 (≈ 0.753 µg/mL)
O=[N+]([O-])c1cn2c(n1)OC[C@@H](OCc1cnc(-c3ccc(C(F)(F)F)cc3)nc1)C2	0.025 (≈ 0.0105 µg/mL)	–	9.4 (≈ 3.96 µg/mL)
O=[N+]([O-])c1cn2c(n1)OC[C@@H](OCc1cnc(-c3ccc(F)cc3)nc1)C2	0.11 (≈ 0.0408 µg/mL)	–	5.4 (≈ 2.01 µg/mL)
O=[N+]([O-])c1cn2c(n1)OC[C@@H](OCc1cnc(-c3ccc(C(F)(F)F)nc3)nc1)C2	0.16 (≈ 0.0676 µg/mL)	–	12 (≈ 5.07 µg/mL)
O=[N+]([O-])c1cn2c(n1)OC[C@@H](OCc1ccccc1-c1cccnc1)C2	> 8	116 (≈ 329 µM)	> 32
O=[N+]([O-])c1cn2c(n1)OC[C@@H](OCc1ccccc1-c1ccc(F)nc1)C2	> 8	35 (≈ 94.5 µM)	16 (≈ 5.93 µg/mL)
COc1ccc(-c2ccccc2CO[C@@H]2COc3nc([N+](=O)[O-])cn3C2)cn1	5.2 (≈ 1.99 µg/mL)	48 (≈ 126 µM)	8.3 (≈ 3.17 µg/mL)
O=[N+]([O-])c1cn2c(n1)OC[C@@H](OCc1ccccc1-c1ccc(OCc3ccccc3)nc1)C2	2.7 (≈ 1.24 µg/mL)	1.2 (≈ 2.62 µM)	10 (≈ 4.58 µg/mL)
O=[N+]([O-])c1cn2c(n1)OC[C@@H](OCc1ccccc1-c1ccncc1)C2	> 8	–	> 32
O=[N+]([O-])c1cn2c(n1)OC[C@@H](OCc1cccc(-c3ccccn3)c1)C2	1.4 (≈ 0.493 µg/mL)	–	11 (≈ 3.88 µg/mL)
O=[N+]([O-])c1cn2c(n1)OC[C@@H](OCc1cccc(-c3ccc(C(F)(F)F)cn3)c1)C2	0.32 (≈ 0.135 µg/mL)	4 (≈ 9.52 µM)	4.3 (≈ 1.81 µg/mL)
O=[N+]([O-])c1cn2c(n1)OC[C@@H](OCc1cccc(-c3ccc(OC(F)F)cn3)c1)C2	0.21 (≈ 0.0879 µg/mL)	6.7 (≈ 16 µM)	6.4 (≈ 2.68 µg/mL)
O=[N+]([O-])c1cn2c(n1)OC[C@@H](OCc1cccc(-c3cccnc3)c1)C2	1.4 (≈ 0.493 µg/mL)	110 (≈ 312 µM)	9.7 (≈ 3.42 µg/mL)
O=[N+]([O-])c1cn2c(n1)OC[C@@H](OCc1cccc(-c3ccc(C(F)(F)F)nc3)c1)C2	0.47 (≈ 0.198 µg/mL)	1.1 (≈ 2.62 µM)	8.4 (≈ 3.53 µg/mL)
O=[N+]([O-])c1cn2c(n1)OC[C@@H](OCc1cccc(-c3ccc(F)nc3)c1)C2	0.37 (≈ 0.137 µg/mL)	26 (≈ 70.2 µM)	5.1 (≈ 1.89 µg/mL)
COc1ccc(-c2cccc(CO[C@@H]3COc4nc([N+](=O)[O-])cn4C3)c2)cn1	0.4 (≈ 0.153 µg/mL)	18 (≈ 47.1 µM)	1.7 (≈ 0.65 µg/mL)
O=[N+]([O-])c1cn2c(n1)OC[C@@H](OCc1cccc(-c3ccc(OCc4ccccc4)nc3)c1)C2	0.07 (≈ 0.0321 µg/mL)	0.15 (≈ 0.327 µM)	3 (≈ 1.38 µg/mL)
O=[N+]([O-])c1cn2c(n1)OC[C@@H](OCc1cccc(-c3ccncc3)c1)C2	1.4 (≈ 0.493 µg/mL)	–	> 32

SMILES	MIC [1] [µM]	solubility (physchem) [µg/mL]	MIC [2] [µM]
O=[N+]([O-])c1cn2c(n1)OC[C@@H](OCc1ccc(-c3ccccn3)cc1)C2	0.21 (≈ 0.074 µg/mL)	7.3 (≈ 20.7 µM)	1.7 (≈ 0.599 µg/mL)
O=[N+]([O-])c1cn2c(n1)OC[C@@H](OCc1ccc(-c3cccnc3)cc1)C2	0.51 (≈ 0.18 µg/mL)	29 (≈ 82.3 µM)	5.7 (≈ 2.01 µg/mL)
N#Cc1ccc(-c2ccc(CO[C@@H]3COc4nc([N+](=O)[O-])cn4C3)cc2)nc1	0.08 (≈ 0.0302 µg/mL)	1.7 (≈ 4.5 µM)	2.5 (≈ 0.943 µg/mL)
O=[N+]([O-])c1cn2c(n1)OC[C@@H](OCc1ccc(-c3cccc(F)n3)cc1)C2	0.14 (≈ 0.0518 µg/mL)	4.3 (≈ 11.6 µM)	1.1 (≈ 0.407 µg/mL)
COc1ccc(-c2ccc(CO[C@@H]3COc4nc([N+](=O)[O-])cn4C3)cc2)nc1	0.13 (≈ 0.0497 µg/mL)	2.5 (≈ 6.54 µM)	1.2 (≈ 0.459 µg/mL)
N#Cc1ccc(-c2ccc(CO[C@@H]3COc4nc([N+](=O)[O-])cn4C3)cc2)cn1	0.2 (≈ 0.0755 µg/mL)	3 (≈ 7.95 µM)	2.4 (≈ 0.906 µg/mL)
O=[N+]([O-])c1cn2c(n1)OC[C@@H](OCc1ccc(-c3cncc(F)c3)cc1)C2	0.55 (≈ 0.204 µg/mL)	55 (≈ 149 µM)	2.8 (≈ 1.04 µg/mL)
Nc1ccc(-c2ccc(CO[C@@H]3COc4nc([N+](=O)[O-])cn4C3)cc2)cn1	2.6 (≈ 0.955 µg/mL)	13 (≈ 35.4 µM)	19 (≈ 6.98 µg/mL)
O=[N+]([O-])c1cn2c(n1)OC[C@@H](OCc1ccc(-c3ccc(OCc4ccccc4)nc3)cc1)C2	0.04 (≈ 0.0183 µg/mL)	0.03 (≈ 0.0654 µM)	> 32
O=[N+]([O-])c1cn2c(n1)OC[C@@H](OCc1ccc(-c3ccncc3)cc1)C2	0.5 (≈ 0.176 µg/mL)	22 (≈ 62.4 µM)	9.2 (≈ 3.24 µg/mL)
O=[N+]([O-])c1cn2c(n1)OC[C@@H](OCc1ccc(-c3ccncc3F)cc1)C2	0.56 (≈ 0.207 µg/mL)	16 (≈ 43.2 µM)	3.9 (≈ 1.44 µg/mL)
O=[N+]([O-])c1cn2c(n1)OC[C@@H](OCc1cccc(-c3ccc(C(F)(F)F)cc3)n1)C2	0.29 (≈ 0.122 µg/mL)	5 (≈ 11.9 µM)	2.9 (≈ 1.22 µg/mL)
N#Cc1ccc(-c2cccc(CO[C@@H]3COc4nc([N+](=O)[O-])cn4C3)n2)cc1	0.48 (≈ 0.181 µg/mL)	24 (≈ 63.6 µM)	10 (≈ 3.77 µg/mL)
O=[N+]([O-])c1cn2c(n1)OC[C@@H](OCc1cccc(-c3ccc(F)cc3)n1)C2	0.3 (≈ 0.111 µg/mL)	–	2.7 (≈ 1 µg/mL)
O=[N+]([O-])c1cn2c(n1)OC[C@@H](OCc1cccc(-c3ccc(OC(F)(F)F)cc3)n1)C2	0.16 (≈ 0.0698 µg/mL)	–	1.4 (≈ 0.611 µg/mL)
O=[N+]([O-])c1cn2c(n1)OC[C@@H](OCc1cccc(-c3ccc(OC(F)F)cc3)n1)C2	0.17 (≈ 0.0711 µg/mL)	9.6 (≈ 22.9 µM)	2.7 (≈ 1.13 µg/mL)
COc1ccc(-c2cccc(CO[C@@H]3COc4nc([N+](=O)[O-])cn4C3)n2)cc1F	0.3 (≈ 0.12 µg/mL)	10 (≈ 25 µM)	4.3 (≈ 1.72 µg/mL)
COc1ccc(-c2cccc(CO[C@@H]3COc4nc([N+](=O)[O-])cn4C3)n2)cn1	0.71 (≈ 0.272 µg/mL)	14 (≈ 36.5 µM)	5.2 (≈ 1.99 µg/mL)
O=[N+]([O-])c1cn2c(n1)OC[C@@H](OCc1ccnc(-c3ccc(C(F)(F)F)cc3)c1)C2	0.075 (≈ 0.0315 µg/mL)	2.8 (≈ 6.66 µM)	4.4 (≈ 1.85 µg/mL)
O=[N+]([O-])c1cn2c(n1)OC[C@@H](OCc1ccc(-c3ccc(C(F)(F)F)cc3)cc1)C2	–	0.43 (≈ 1.03 µM)	–
